Results: US20240342292A1, “Compounds for the Degradation of EGFR Kinase” (BeiGene Switzerland GmbH, priority 2021, published 2024)
“And” between values parts separate entries of the source, which are not always exact repeats. Equal values may be shown once.

How the values were obtained:
[1] = target: T1, L858R/T790M/C797S EGFR (Homo sapiens, UniProt P00533, C797S/L858R/T790M); assay: EGFR degradation HTRF assay in H1975-clone #25 (LTC) cells; format: cell-based; details: 16h treatment; for DC50: HTRF; for Dmax: NCI-H1975, H1975 # 25-LTC (L858R/T790M/C797S)
T1 construct: expressed in transfected cells; host or cells: H1975 clone #25 (lentiviral over-expression, endogenous EGFR knocked out by sgRNA)
Method in brief: (§1)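 H1975 clones stably overexpressing mutant EGFR by lentivirus, with endogenous EGFR knocked out by sgRNA and homozygosity confirmed by sequencing, were treated 16 h at 37 °C with compounds in 0.2% DMSO medium, 8 doses from 10 uM in 5-fold dilution. Lysates were read by HTRF (665/620 nm); DC50 came from a four-parameter fit.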

[2] = test system: Del19/T790M/C797S EGFR; assay: EGFR degradation HTRF assay in H1975-clone #28 (DTC) cells; format: cell-based; details: H1975 # 28 DTC (Del19/T790M/C797S), 16h treatment; for DC50: HTRF; for Dmax (%): maximum percentage of degradation
Method in brief: as §1

[3] = H1975 # 25-LTC (L858R/T790M/C797S)
[4] = maximum percentage of degradation

T1 sequence (P00533 25-1210 T790M/C797S/L858R): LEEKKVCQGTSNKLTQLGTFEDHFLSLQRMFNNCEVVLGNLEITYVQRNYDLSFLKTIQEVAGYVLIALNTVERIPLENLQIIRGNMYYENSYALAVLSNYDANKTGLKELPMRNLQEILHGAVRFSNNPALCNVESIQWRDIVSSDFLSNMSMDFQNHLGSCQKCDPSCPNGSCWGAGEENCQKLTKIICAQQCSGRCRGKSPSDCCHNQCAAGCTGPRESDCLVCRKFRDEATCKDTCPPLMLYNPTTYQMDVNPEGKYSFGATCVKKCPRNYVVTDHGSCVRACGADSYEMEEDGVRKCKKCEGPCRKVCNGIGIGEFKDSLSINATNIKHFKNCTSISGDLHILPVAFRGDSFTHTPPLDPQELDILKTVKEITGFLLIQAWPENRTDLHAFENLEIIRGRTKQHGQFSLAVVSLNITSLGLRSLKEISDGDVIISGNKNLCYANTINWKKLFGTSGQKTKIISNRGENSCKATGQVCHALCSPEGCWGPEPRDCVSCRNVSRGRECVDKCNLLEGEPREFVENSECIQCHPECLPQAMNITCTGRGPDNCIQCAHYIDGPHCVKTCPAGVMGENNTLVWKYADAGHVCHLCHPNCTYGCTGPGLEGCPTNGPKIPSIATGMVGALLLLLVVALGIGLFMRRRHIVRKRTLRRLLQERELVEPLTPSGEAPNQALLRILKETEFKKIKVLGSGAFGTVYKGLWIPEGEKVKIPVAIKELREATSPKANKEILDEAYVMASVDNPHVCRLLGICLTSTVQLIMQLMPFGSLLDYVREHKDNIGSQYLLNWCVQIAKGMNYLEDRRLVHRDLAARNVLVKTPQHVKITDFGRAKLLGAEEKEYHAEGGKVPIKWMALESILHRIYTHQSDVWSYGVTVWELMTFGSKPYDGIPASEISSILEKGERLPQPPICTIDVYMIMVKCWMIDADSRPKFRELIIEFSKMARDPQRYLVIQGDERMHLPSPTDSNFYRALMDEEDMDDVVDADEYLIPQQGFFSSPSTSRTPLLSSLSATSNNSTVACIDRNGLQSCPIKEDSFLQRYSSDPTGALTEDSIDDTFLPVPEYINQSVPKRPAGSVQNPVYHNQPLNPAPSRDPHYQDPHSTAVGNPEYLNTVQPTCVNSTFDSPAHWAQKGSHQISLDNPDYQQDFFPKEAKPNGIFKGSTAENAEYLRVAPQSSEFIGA

| SMILES | DC50 [1, 3] | Dmax [1, 4] [%] | DC50 [2] | Dmax (%) [2] | Dmax (%) ([1]; H1975 # 25-LTC (L858R/T790M/C797S), maximum percentage of degradation) |
| --- | --- | --- | --- | --- | --- |
| Cc1cc2cc(n1)-c1cnn(C)c1OCCC[C@@H](C)CN1/C(=N/C2=O)Nc2ccc(CN(C)[C@@H]3CCCN(C(=O)[C@@H]4CCN(c5cc(F)c([C@H]6CCC(=O)NC6=O)c(F)c5)C4)C3)cc21 [Example 318, (R)-3-(2,6-difluoro-4-((R)-3-((R)-3-(methyl(((R,E)-1^1,2^6,7-trimethyl-3-oxo-5^2,53-dihydro-1^1H,5^1H-11-oxa-4-aza-5(2,1)-benzo[d]imidazola-2(2,4)-pyridina-1(4,5)-pyrazolacycloundecaphane-5^6-yl)methyl)amino)piperidine-1-carbonyl)pyrrolidin-1-yl)phenyl)piperidine-2,6-dione] | 1330 pM | 76.4 | 995 pM | 67.67% |  |
| Cc1cc2cc(n1)-c1cnn(C)c1OCCC[C@@H](C)CN1/C(=N/C2=O)Nc2ccc(C(=O)N(C)[C@H]3CCN(CCNc4cc(F)c([C@H]5CCC(=O)NC5=O)c(F)c4)C[C@H]3F)cc21 [Example 351, (R,E)-N—((3R,4S)-1-(2-((4-((R)-2,6-dioxopiperidin-3-yl)-3,5-difluorophenyl)amino)ethyl)-3-fluoropiperidin-4-yl)-N,1^1,2^6,7-tetramethyl-3-oxo-5^2,5^3-dihydro-1^1H,5^1H-11-oxa-4-aza-5(2,1)-benzo[d]imidazola-2(2,4)-pyridina-1(4,5)-pyrazolacycloundecaphane-5^6-carboxamide] | 614 pM | 91.7 | 561 pM | 83.91% |  |
| Cc1cc2cc(n1)-c1cnn(C)c1OCC[C@H]1C[C@@H]1CN1/C(=N/C2=O)Nc2ccc(NC3CN(C4CCN(c5cc(F)c([C@H]6CCC(=O)NC6=O)c(F)c5)CC4)C3)cc21 [Example 455, (R)-3-(4-(4-(3-(((71S,72R,E)-1^1,2^6-dimethyl-3-oxo-5^2,5^3-dihydro-1^1H,5^1H-10-oxa-4-aza-5(2,1)-benzo[d]imidazola-2(2,4)-pyridina-1(4,5)-pyrazola-7(1,2)-cyclopropanacyclodecaphane-5^6-yl)amino)azetidin-1-yl)piperidin-1-yl)-2,6-difluorophenyl)piperidine-2,6-dione] | 537 pM | 90.8 | 912 pM | 85.22% |  |
| Cc1cc2cc(n1)-c1cnn(C)c1OCCC[C@@H](C)CN1/C(=N/C2=O)Nc2ccc(C(=O)N3CCC(C4CN(CCc5cc(F)c([C@H]6CCC(=O)NC6=O)c(F)c5)C4)CC3)cc21 [Example 312, (R)-3-(2,6-difluoro-4-(2-(3-(1-((R,E)-1^1,2^6,7-trimethyl-3-oxo-5^2,5^3-dihydro-1^1H,5^1H-11-oxa-4-aza-5(2,1)-benzo[d]imidazola-2(2,4)-pyridina-1(4,5)-pyrazolacycloundecaphane-5^6-carbonyl)piperidin-4-yl)azetidin-1-yl)ethyl)phenyl)piperidine-2,6-dione] | 906 pM | 85.8 | 689 pM | 47.95% |  |
| Cc1cc2cc(n1)-c1cnn(C)c1OCCC[C@@H](C)CN1/C(=N/C2=O)Nc2cc(F)c(C3CCN(C(=O)[C@@H]4CCN(c5cc(F)c(C6CCC(=O)NC6=O)c(F)c5)C4)CC3)cc21 (stereo partly drawn) [Example 329, (R)-3-(2,6-difluoro-4-((R)-3-(4-((R,E)-5^5-fluoro-1^1,2^6,7-trimethyl-3-oxo-5^2,5^3-dihydro-1^1H,5^1H-11-oxa-4-aza-5(2,1)-benzo[d]imidazola-2(2,4)-pyridina-1(4,5)-pyrazolacycloundecaphane-5^6-yl)piperidine-1-carbonyl)pyrrolidin-1-yl)phenyl)piperidine-2,6-dione] | 2970 pM | 78.7 | 2190 pM | 68.61% |  |
| Cc1cc2cc(n1)-c1cnn(C)c1OCCC[C@@H](C)CN1/C(=N/C2=O)Nc2ccc(N3CCN(C4CCN(c5cc(F)c([C@H]6CCC(=O)NC6=O)c(F)c5)CC4)C[C@H]3C)cc21 [Example 384, (R)-3-(2,6-difluoro-4-(4-((R)-3-methyl-4-((R,E)-1^1,2^6,7-trimethyl-3-oxo-5^2,5^3-dihydro-1^1H,5^1H-11-oxa-4-aza-5(2,1)-benzo[d]imidazola-2(2,4)-pyridina-1(4,5)-pyrazolacycloundecaphane-5^6-yl)piperazin-1-yl)piperidin-1-yl)phenyl)piperidine-2,6-dione] | 1670 pM | 87.7 | 1500 pM | 75.83% |  |
| Cc1cc2cc(n1)-c1cnn(C)c1OCCC[C@@H](C)CN1/C(=N/C2=O)Nc2ccc(N3CCN(CCc4ccc(C5CCC(=O)NC5=O)nc4C)CC3)cc21 (stereo partly drawn) [Example 393, 3-(6-methyl-5-(2-(4-((R,E)-1^1,2^6,7-trimethyl-3-oxo-5^2,5^3-dihydro-1^1H,5^1H-11-oxa-4-aza-5(2,1)-benzo[d]imidazola-2(2,4)-pyridina-1(4,5)-pyrazolacycloundecaphane-5^6-yl)piperazin-1-yl)ethyl)pyridin-2-yl)piperidine-2,6-dione] | 340 pM | 89.8 | 540 pM | 77.73% |  |
| Cc1cc2cc(n1)-c1cnn(C)c1OCCC[C@@H](C)CN1/C(=N/C2=O)Nc2ccc(CN3CC4(CCN(C(=O)[C@@H]5CCN(c6cc(F)c([C@H]7CCC(=O)NC7=O)c(F)c6)C5)CC4)C3)cc21 [Example 84, (R)-3-(2,6-difluoro-4-((R)-3-(2-(((R,E)-1^1,2^6,7-trimethyl-3-oxo-5^2,5^3-dihydro-1^1H,5^1H-11-oxa-4-aza-5(2,1)-benzo[d]imidazola-2(2,4)-pyridina-1(4,5)-pyrazolacycloundecaphane-5^6-yl)methyl)-2,7-diazaspiro[3.5]nonane-7-carbonyl)pyrrolidin-1-yl)phenyl)piperidine-2,6-dione] | 2900 pM | 92.7 | 800 pM | 86.1% |  |
| Cc1cc2cc(n1)-c1cnn(C)c1OCCC[C@@H](C)CN1/C(=N/C2=O)Nc2ccc(C(=O)N[C@@H]3CCN(CCc4cc(F)c([C@H]5CCC(=O)NC5=O)c(F)c4)C[C@H]3F)cc21 [Example 345, (R,E)-N—((3R,4R)-1-(4-((R)-2,6-dioxopiperidin-3-yl)-3,5-difluorophenethyl)-3-fluoropiperidin-4-yl)-1^1,2^6,7-trimethyl-3-oxo-5^2,5^3-dihydro-1^1H,5^1H-11-oxa-4-aza-5(2,1)-benzo[d]imidazola-2(2,4)-pyridina-1(4,5)-pyrazolacycloundecaphane-5^6-carboxamide] | 634 pM and 600 pM | 92.5 | 662 pM and 700 pM | 74.46% and 74.5% | 92.5 |
| Cc1cc2cc(n1)-c1cnn(C)c1OCCC[C@@H](C)CN1/C(=N/C2=O)Nc2ccc(C(=O)N(C3CC3)C3CCN(CCc4cc(F)c([C@H]5CCC(=O)NC5=O)c(F)c4)CC3)cc21 [Example 239, (R,E)-N-cyclopropyl-N-(1-(4-((R)-2,6-dioxopiperidin-3-yl)-3,5-difluorophenethyl)piperidin-4-yl)-1^1, 2^6,7-trimethyl-3-oxo-5^2,5^3-dihydro-1^1H,5^1H-11-oxa-4-aza-5(2,1)-benzo[d]imidazola-2(2,4)-pyridina-1(4,5)-pyrazolacycloundecaphane-5^6-carboxamide] | 604 pM | 87.9 | 205 pM | 83.87% |  |
| Cc1cc2cc(n1)-c1cnn(C)c1OCCC[C@@H](C)CN1/C(=N/C2=O)Nc2ccc(N3CCC(N4CCN(c5cc(F)c([C@H]6CCC(=O)NC6=O)c(F)c5)CC4)CC3)cc21 [Example 387, (R)-3-(2,6-difluoro-4-(4-(1-((R,E)-1^1,2^6,7-trimethyl-3-oxo-5^2,53-dihydro-1^1H,5^1H-11-oxa-4-aza-5(2,1)-benzo[d]imidazola-2(2,4)-pyridina-1(4,5)-pyrazolacycloundecaphane-5^6-yl)piperidin-4-yl)piperazin-1-yl)phenyl)piperidine-2,6-dione] | 1460 pM | 87.2 | 782 pM | 76.00% |  |
| Cc1cc2cc(n1)-c1cnn(C)c1OCCC[C@@H](C)CN1/C(=N/C2=O)Nc2ccc(N3CCC(C(=O)N4CCC(Oc5cc(F)c([C@H]6CCC(=O)NC6=O)c(F)c5)CC4)CC3)cc21 [Example 364, (R)-3-(2,6-difluoro-4-((1-(1-((R,E)-1^1,2^6,7-trimethyl-3-oxo-5^2,53-dihydro-1^1H,5^1H-11-oxa-4-aza-5(2,1)-benzo[d]imidazola-2(2,4)-pyridina-1(4,5)-pyrazolacycloundecaphane-5^6-yl)piperidine-4-carbonyl)piperidin-4-yl)oxy)phenyl)piperidine-2,6-dione] | 1120 pM | 86.4 | 633 pM | 75.27% |  |
| CO[C@@H]1CN(CCc2cc(F)c([C@H]3CCC(=O)NC3=O)c(F)c2)CC[C@H]1NC(=O)c1ccc2c(c1)N1C[C@H](C)CCCOc3c(cnn3C)-c3cc(cc(C)n3)C(=O)/N=C/1N2 [Example 253, (R,E)-N—((3R,4R)-1-(4-((R)-2,6-dioxopiperidin-3-yl)-3,5-difluorophenethyl)-3-methoxypiperidin-4-yl)-1^1,2^6,7-trimethyl-3-oxo-5^2,5^3-dihydro-1^1H,5^1H-11-oxa-4-aza-5(2,1)-benzo[d]imidazola-2(2,4)-pyridina-1(4,5)-pyrazolacycloundecaphane-5^6-carboxamide] | 289 pM | 93.8 | 590 pM | 82.5% |  |
